Reference: patent US20220378756A1, “ACTIVATING PYRUVATE KINASE R” (FORMA Therapeutics, Inc., priority 2019, published 2022)

Experiments:
Human SCD cells = assay: Ex vivo sickling under severe hypoxic conditions (2% oxygen); assay type: cell-based; settings: 10 μM
Procedure: Red blood cells from SCD patients were used to evaluate the effects of Compound 1 on Hgb affinity for oxygen (i.e., oxygen affinity) and sickling under hypoxic conditions. Cells were incubated at 37° C. for 1, 2, and 3 hr with HEPES buffered saline (HBS) (untreated), HBS+dimethyl sulfoxide (DMSO) (vehicle), or 10 μM Compound 1. To assess oxygen dissociation, Hgb oxygen equilibrium curves were collected during deoxygenation.
Compound 1 (10 μM) reduced cell sickling under severe hypoxic conditions of 2% oxygen (PO2 of <20 mmHg) for up to 20 min (Table 9).

[1] = Phase 1 SAD/MAD, healthy volunteers: pharmacokinetics; assay type: in vivo, human
From the text: This is a first-in-human (FIH), Phase 1 study of Compound 1 that will characterize the safety, PK, and PD of Compound 1 after a single dose and after repeated dosing first in healthy adult volunteers and then in adolescents or adults with sickle cell disease. Initially, a dose range of Compound 1 in single ascending dose (SAD) escalation cohorts will be explored in healthy subjects. Enrollment of healthy subjects into 2-week multiple ascending dose (MAD) escalation cohorts will be initiated once the safety and PK from at least two SAD cohorts is available to inform the doses for the 2-week MAD portion of the study. The MAD cohorts will then run in parallel to the single dose cohorts. A single dose cohort is planned to understand food effects (FE) on the PK of Compound 1. […] Multiple dose studies in SCD subjects will then be initiated upon completion of MAD studies in healthy volunteers. Compound 1 will be administered in 25 mg and 100 mg tablets delivered orally.
In this study, SAD/MAD cohorts are randomized (3 to 1) to receive Compound 1 or placebo (P). Compound 1 was evaluated first in 4 healthy SAD cohorts and 4 healthy MAD (14-day dosing period) cohorts. Based on the safety, and PK/PD profile from HS, Compound 1 is then evaluated in 1 SCD SAD cohort and 2 SCD MAD cohorts. Specifically, based on the safety and pharmacokinetic/pharmacodynamics (PK/PD) profile in healthy volunteer studies, Compound 1 is evaluated in patients (pts) with SCD, first in a single dose (SD or SAD) cohort and then in multiple-dose (MD or MAD) cohorts (14-day and 12-week). Safety assessments include AEs, vital signs, ECGs and laboratory parameters. PK/PD blood sampling was performed on Day 1 (SAD/MAD) and Day 14 (MAD) and up to 72 h after the last dose and at the end-of-study visit. […]
Four healthy SAD cohorts were evaluated at doses of 200, 400, 700, and 1000 mg, and four healthy MAD cohorts received 200 to 600 mg total daily doses for 14 days at QD or BID dosing (100 mg BID, 200 mg BID, 300 mg BID, and 400 mg QD). […]

O=C([C@H](CO)c1ccccc1)N1CC2=C(C1)CN(S(=O)(=O)c1cnc3c(c1)OCCO3)C2 (single isomer, unassigned) [Compound 1]
% Protection (Human SCD cells; 15 min in hypoxic conditions (maximum)): 16%
Net % of Sickled Cells (Human SCD cells; 20 min in hypoxic conditions, DMSO 71): 60%
exposure under fed/fasted conditions ([1]; food effect cohort, 200 mg): similar
observed clearance on day 1 and day 14 ([1]; healthy subjects, 14 days of dosing): unchanged
time of pharmacokinetic maximum ([1]; healthy volunteers, single dose 400 mg, FIG. 43): 1 to 2 h
